Results on two molecules are retold here after US7785879B1, “Pregnane X receptor compositions, crystals and uses thereof” (Schering Corporation, priority 2005, dated 2010).

Data set [1] addresses T1, human PXR-LBD-L10-SRC (SEQ ID NO: 24) (Homo sapiens, UniProt O75469).
T1 sequence (O75469 with tags, fused parts or gaps): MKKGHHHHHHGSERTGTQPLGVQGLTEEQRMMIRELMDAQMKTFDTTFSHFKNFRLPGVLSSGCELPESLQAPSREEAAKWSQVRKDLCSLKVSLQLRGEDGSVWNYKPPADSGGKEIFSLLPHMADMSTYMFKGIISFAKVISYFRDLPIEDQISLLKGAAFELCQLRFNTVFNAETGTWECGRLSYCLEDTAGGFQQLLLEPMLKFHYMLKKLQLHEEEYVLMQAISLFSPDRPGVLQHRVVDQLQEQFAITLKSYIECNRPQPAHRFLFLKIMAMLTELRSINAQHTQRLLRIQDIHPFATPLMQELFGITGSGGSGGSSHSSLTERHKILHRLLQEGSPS
The data set is described as follows: Ligand binding assay (radioligand, filter plate). The following applies: conclusion from the radioligand binding tables.
Protocol: Chemilluminescence can be detected, for example, in a scintillation counter (Packard Top-counter). Specifically, the bound complex can be contacted with scintillant and then analyzed for the occurrence of scintillation.
After one hour of incubation at room temperature, the mixture was transferred to an imobilon multiScreen filter plate (Millipore). The plate was washed five times with PBS and dried under vacuum. The dried plate was added Opti-Fluor Scitillation cocktail before counting in a Parkard Top-counter.

A further data set deals with T2, PXR (Homo sapiens, UniProt O75469).
T2 sequence (O75469 1-434): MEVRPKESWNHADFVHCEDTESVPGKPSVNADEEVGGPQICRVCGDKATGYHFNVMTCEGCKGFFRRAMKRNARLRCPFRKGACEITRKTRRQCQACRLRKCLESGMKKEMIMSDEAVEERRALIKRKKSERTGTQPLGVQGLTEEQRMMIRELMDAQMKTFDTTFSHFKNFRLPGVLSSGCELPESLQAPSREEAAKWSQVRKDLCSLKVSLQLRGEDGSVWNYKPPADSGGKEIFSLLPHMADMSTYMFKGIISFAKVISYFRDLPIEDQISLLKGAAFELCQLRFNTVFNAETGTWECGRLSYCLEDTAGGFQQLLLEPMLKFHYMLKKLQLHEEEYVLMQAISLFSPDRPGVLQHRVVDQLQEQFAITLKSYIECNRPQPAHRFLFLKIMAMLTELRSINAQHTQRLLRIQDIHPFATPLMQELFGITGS
The following applies: Table 2; read-out: reported Kd; cited from earlier work.

The target in another data set is T3, PXR-LBD-L10-SRC (Homo sapiens, UniProt O75469).
T3 sequence (O75469 with tags, fused parts or gaps): T1 sequence (O75469 with tags, fused parts or gaps)
The data set is described as follows: Temperature-dependent circular dichroism, stabilization of PXR-LBD-L10-SRC. The note with it: 25 uM compound. Here is the method:
(§1) The CD is a function of wavelength.
(§2) PXR-LBD-L10-SRC was expressed and purified essentially as set forth above. […] Stabilization of PXR-LBD-L10-SRC in the presence of various substances was measured by temperature-dependent circular dichroism. PXR-LBD-L10-SRC was assayed under the following conditions:
(§3) Buffer: 25 mM Hepes, pH 7.9, 150 mM NaCl, 5% glycerol, 10 mM BME,
(§4) heating ramp at 2° C./min
(§5) temperature range: 30-80° C.

Another data set addresses T4, PXR (PXR-LBD-L10-SRC) (Homo sapiens, UniProt O75469).
T4 sequence (O75469 with tags, fused parts or gaps): T1 sequence (O75469 with tags, fused parts or gaps)
The description is as above. The note with it: human, pH 7.9. As to the method:
as §1, §2, §3, §4, §5

As for `Clc1ccccc1C(c1ccccc1)(c1ccccc1)n1ccnc1` [Clotrimazole], the “binding activity of PXR” value in data set [1] is listed as “significant”. The Kd was 300 nM at PXR and 200 nM at PXR-LBD-L10-SRC (from CD thermal denaturation). The Tm at PXR-LBD-L10-SRC (2.5 μM protein, 225 nm, apo enzyme Tm 52.9 ± 0.05) came out at 58.5 C. Also, at PXR-LBD-L10-SRC (vs PXR-LBD-L10-SRC apo enzyme), the ΔTm was 5.6 C.

As for `O=C1C(CC[S+]([O-])c2ccccc2)C(=O)N(c2ccccc2)N1c1ccccc1` (stereo not drawn) [sulfopyrole], the ΔTm at 25 µM at PXR (PXR-LBD-L10-SRC) came out at 2.3 °C.
